Results taken from ChEMBL document CHEMBL1201862, “PubChem BioAssay data set” (2004).
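Test compounds were applied to cells in 96-well plates for 48 hours at 5 doses. Here, GI50 denotes the concentration required for 50% inhibition of growth.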 Active and inactive are the calls of the source. Cut-off read from the data, not from the text of the source: active = GI50 up to about 1.1 µM and inactive = higher.

Columns and labels:
Assay in all cases: growth of human tumour cells (NCI), 48 h
COLO 205 = system: COLO 205
HCT-116 = system: HCT-116
NCI-H23 = system: NCI-H23
LOX IMVI = system: LOX IMVI
SW-620 = system: SW-620
HOP-92 = system: HOP-92
SN12C = system: SN12C
Hs-578T = system: Hs-578T
UO-31 = system: UO-31
HCC 2998 = system: HCC 2998
A549 = system: A549
OVCAR-8 = system: OVCAR-8
SK-MEL-5 = system: SK-MEL-5
U-251 = system: U-251
NCI-H522 = system: NCI-H522
OVCAR-5 = system: OVCAR-5
OVCAR-4 = system: OVCAR-4
ACHN = system: ACHN
MDA-MB-435 = system: MDA-MB-435
MDA-MB-231 = system: MDA-MB-231

SMILES | GI50 (COLO 205) | GI50 (HCT-116) | GI50 (NCI-H23) | GI50 (LOX IMVI) | GI50 (SW-620) | GI50 (HOP-92) | GI50 (SN12C) | GI50 (Hs-578T) | GI50 (UO-31) | GI50 (HCC 2998) | GI50 (A549) | GI50 (OVCAR-8) | GI50 (SK-MEL-5) | GI50 (U-251) | GI50 (NCI-H522) | GI50 (OVCAR-5) | GI50 (OVCAR-4) | GI50 (ACHN) | GI50 (MDA-MB-435) | GI50 (MDA-MB-231)
CCCCCCc1cc2cc(C(=O)Nc3nc(C45CC6CC(CC(C6)C4)C5)cs3)c(=O)oc2cc1O | 16.7 µM (inactive) | 3.56 µM (inactive) | 5 µM (inactive) | 11.2 µM (inactive) | 19 µM (inactive) | 4.93 µM (inactive) | 5.53 µM (inactive) | 11.8 µM (inactive) | 24.5 µM (inactive) | 8.15 µM (inactive) | 17.7 µM (inactive) | 7.11 µM (inactive) | 11.9 µM (inactive) | 11.6 µM (inactive) | 3.45 µM (inactive) | 16 µM (inactive) | 11.1 µM (inactive) | 4.43 µM (inactive) | 7.13 µM (inactive) | 7.33 µM (inactive)
CCCCC[C@H]1CC=CC(=O)O1 | 3.53 µM (inactive) | 3.16 µM (inactive) | 17.9 µM (inactive) | 4.65 µM (inactive) | 3.41 µM (inactive) | 10.4 µM (inactive) | 6.68 µM (inactive) | 7.71 µM (inactive) | 11 µM (inactive) | 4.25 µM (inactive) | 5.86 µM (inactive) | 8.28 µM (inactive) | 7.78 µM (inactive) | 8.3 µM (inactive) | 2.78 µM (inactive) | 24 µM (inactive) | 5.7 µM (inactive) | 7.13 µM (inactive) | 7.33 µM (inactive) | 10 µM (inactive)
C/C=C(\C)C(=O)OC1C(C)=C2C(C1OC(=O)CCCC)C(C)(OC(C)=O)CC(OC(=O)CCCC)C1(O)C2OC(=O)C1(C)O (stereo not given) | 0.891 µM (active) | 0.525 µM (active) | 1.14 µM (inactive) | 0.439 µM (active) | 0.501 µM (active) | 0.746 µM (active) | 2.59 µM (inactive) | 0.625 µM (active) | 15.4 µM (inactive) | 3.24 µM (inactive) | 1.03 µM (active) | 4.43 µM (inactive) | 1.73 µM (inactive) | 0.605 µM (active) | 0.362 µM (active) | 2.21 µM (inactive) | 1.86 µM (inactive) | 4.8 µM (inactive) | 0.501 µM (active) | 0.625 µM (active)
NC(=O)CN1CCN(c2nc(N3CCCC3)c3nc(Cl)c(NCc4ccccc4)nc3n2)CC1 | 8.75 µM (inactive) | 8 µM (inactive) | 13.7 µM (inactive) | 9.33 µM (inactive) | 11.5 µM (inactive) | 8.36 µM (inactive) | 9.48 µM (inactive) | 9.66 µM (inactive) | 10.7 µM (inactive) | 8.38 µM (inactive) | 12.9 µM (inactive) | 15 µM (inactive) | 8.45 µM (inactive) | 8.59 µM (inactive) | 10.4 µM (inactive) | 10.1 µM (inactive) | 16 µM (inactive) | 12.4 µM (inactive) | 10 µM (inactive) | 10.8 µM (inactive)
C=CC(=O)C#CC#CC/C=C\CCCCCCC | > 20.6 µM (inactive) | > 17.6 µM (inactive) | > 20.6 µM (inactive) | 7.76 µM (inactive) | > 20.6 µM (inactive) | > 11.3 µM (inactive) | > 20.6 µM (inactive) | > 20.6 µM (inactive) | > 20.6 µM (inactive) | > 20.6 µM (inactive) | > 20.6 µM (inactive) | > 19.8 µM (inactive) | > 20.6 µM (inactive) | > 20.6 µM (inactive) | 16 µM (inactive) | > 20.6 µM (inactive) | > 20.6 µM (inactive) | > 20.6 µM (inactive) | > 20.6 µM (inactive) | > 20.6 µM (inactive)
CN(C)CCNc1ccc2nnn3c4ccccc4c(=O)c1c23 | 1.34 µM (inactive) | 1.56 µM (inactive) | 3.91 µM (inactive) | 1.62 µM (inactive) | 1.59 µM (inactive) | 2.48 µM (inactive) | 2.96 µM (inactive) | 3.3 µM (inactive) | 1.32 µM (inactive) | 7.13 µM (inactive) | 2.26 µM (inactive) | 2.21 µM (inactive) | 2.15 µM (inactive) | 1.95 µM (inactive) | 2.64 µM (inactive) | 3.72 µM (inactive) | 3.08 µM (inactive) | 1.22 µM (inactive) | 3.44 µM (inactive) | 3.69 µM (inactive)
CCCCCCCCCCCCCCCCOP(=O)(O)OP(=O)(O)OCC1OC(n2ccc(N)nc2=O)CC1O (stereo not given) | > 100 µM (inactive) | > 100 µM (inactive) | > 100 µM (inactive) | > 100 µM (inactive) | > 100 µM (inactive) | > 100 µM (inactive) | > 100 µM (inactive) | > 100 µM (inactive) | > 100 µM (inactive) | > 100 µM (inactive) | > 100 µM (inactive) | > 100 µM (inactive) | > 100 µM (inactive) | > 100 µM (inactive) | > 100 µM (inactive) | > 100 µM (inactive) | > 100 µM (inactive) | > 100 µM (inactive) | > 100 µM (inactive) | > 100 µM (inactive)
COc1cc2c(cc1O)CC1c3c(cc(O)c(OC)c3-2)CCN1C (stereo not given) | > 73.5 µM (inactive) | > 78 µM (inactive) | > 100 µM (inactive) | > 100 µM (inactive) | > 100 µM (inactive) | > 78.3 µM (inactive) | > 100 µM (inactive) | > 100 µM (inactive) | > 100 µM (inactive) | > 100 µM (inactive) | > 100 µM (inactive) | > 100 µM (inactive) | > 89.7 µM (inactive) | > 86.1 µM (inactive) | 56.4 µM (inactive) | > 100 µM (inactive) | > 100 µM (inactive) | > 100 µM (inactive) | > 100 µM (inactive) | > 100 µM (inactive)
CC(C)=CCC[C@@H](C)C1=C(Nc2ccccc2F)C(=O)C(C)=C(O)C1=O | 2.9 µM (inactive) | 4.58 µM (inactive) | 3.66 µM (inactive) | 4.78 µM (inactive) | 5.98 µM (inactive) | 9.31 µM (inactive) | 6.97 µM (inactive) | 5.31 µM (inactive) | 4.45 µM (inactive) | 7.59 µM (inactive) | 4.09 µM (inactive) | 3.49 µM (inactive) | 3.18 µM (inactive) | 8.49 µM (inactive) | 4.18 µM (inactive) | 36.8 µM (inactive) | 9.98 µM (inactive) | 3.5 µM (inactive) | 6.22 µM (inactive) | 4.53 µM (inactive)
O=c1[nH]nc(-c2ccc([N+](=O)[O-])cc2)n1/N=C/c1ccc([N+](=O)[O-])cc1 | > 100 µM (inactive) | > 100 µM (inactive) | 60.7 µM (inactive) | 0.483 µM (active) | > 100 µM (inactive) | > 100 µM (inactive) | > 100 µM (inactive) | > 100 µM (inactive) | > 100 µM (inactive) | > 100 µM (inactive) | 90.8 µM (inactive) | > 100 µM (inactive) | 48.4 µM (inactive) | 71.4 µM (inactive) | 73.3 µM (inactive) | > 100 µM (inactive) | 52.1 µM (inactive) | > 100 µM (inactive) | 99.5 µM (inactive) | > 100 µM (inactive)
CN(C)Cc1cc(Cl)c(O)c(CN(C)C)c1 | > 100 µM (inactive) | > 100 µM (inactive) | > 100 µM (inactive) | > 100 µM (inactive) | > 100 µM (inactive) | > 100 µM (inactive) | > 100 µM (inactive) | > 100 µM (inactive) | > 100 µM (inactive) | > 100 µM (inactive) | > 100 µM (inactive) | > 100 µM (inactive) | > 100 µM (inactive) | > 100 µM (inactive) | > 100 µM (inactive) | > 100 µM (inactive) | > 100 µM (inactive) | > 100 µM (inactive) | > 100 µM (inactive) | > 100 µM (inactive)
COc1ccc(C(OCC2OC(n3cc(C)c(=O)[nH]c3=O)CC2n2cc(Cn3cc(F)c(=O)[nH]c3=O)nn2)(c2ccccc2)c2ccccc2)cc1 (stereo not given) | 4.97 µM (inactive) | 3.38 µM (inactive) | 8.28 µM (inactive) | 4.38 µM (inactive) | 3.72 µM (inactive) | 2.62 µM (inactive) | 5.71 µM (inactive) | 6.97 µM (inactive) | 9.73 µM (inactive) | 3.31 µM (inactive) | 4.1 µM (inactive) | 9.57 µM (inactive) | 7.82 µM (inactive) | 3.78 µM (inactive) | 3.77 µM (inactive) | 10.4 µM (inactive) | 16.4 µM (inactive) | 10.8 µM (inactive) | 1.75 µM (inactive) | 2.69 µM (inactive)
CC[C@]12C=CCN3CCC4(c5cc([C@@]6(C(=O)OC)CC7CN(CCc8c6[nH]c6ccccc86)CC6CCCCC67)c(OC)cc5N(C)C4[C@](O)(C(=O)OC)C1OC(C)=O)[C@@H]32 (stereo not given in full) | < 0.01 µM (active) | < 0.01 µM (active) | < 0.01 µM (active) | < 0.01 µM (active) | < 0.01 µM (active) | < 0.01 µM (active) | < 0.01 µM (active) | < 0.01 µM (active) | 0.157 µM (active) | < 0.01 µM (active) | < 0.01 µM (active) | < 0.015 µM (active) | < 0.01 µM (active) | < 0.01 µM (active) | < 0.01 µM (active) | 0.021 µM (active) | 3.38 µM (inactive) | < 0.0146 µM (active) | < 0.01 µM (active) | < 0.01 µM (active)
O=Cc1ccc(-c2cccs2)s1 | 42.3 µM (inactive) | 39.2 µM (inactive) | > 68.1 µM (inactive) | > 91.8 µM (inactive) | 72.4 µM (inactive) | 55.6 µM (inactive) | > 100 µM (inactive) | 34.1 µM (inactive) | 64 µM (inactive) | 72.8 µM (inactive) | 60 µM (inactive) | > 100 µM (inactive) | 58.1 µM (inactive) | 12.2 µM (inactive) | > 100 µM (inactive) | 16.7 µM (inactive) | 56.4 µM (inactive) | > 100 µM (inactive) | 66.2 µM (inactive) | > 80 µM (inactive)
